Test results as given in US11180474B2 (BRISTOL-MYERS SQUIBB COMPANY, priority 2016, dated 2021).
Counter-ions that a name gives are not always drawn.

Target: T1, human TLR7 (Homo sapiens, UniProt Q9NYK1)
T1 construct: host or cells: HEK-Blue cells
T1 sequence (Q9NYK1 27-1049): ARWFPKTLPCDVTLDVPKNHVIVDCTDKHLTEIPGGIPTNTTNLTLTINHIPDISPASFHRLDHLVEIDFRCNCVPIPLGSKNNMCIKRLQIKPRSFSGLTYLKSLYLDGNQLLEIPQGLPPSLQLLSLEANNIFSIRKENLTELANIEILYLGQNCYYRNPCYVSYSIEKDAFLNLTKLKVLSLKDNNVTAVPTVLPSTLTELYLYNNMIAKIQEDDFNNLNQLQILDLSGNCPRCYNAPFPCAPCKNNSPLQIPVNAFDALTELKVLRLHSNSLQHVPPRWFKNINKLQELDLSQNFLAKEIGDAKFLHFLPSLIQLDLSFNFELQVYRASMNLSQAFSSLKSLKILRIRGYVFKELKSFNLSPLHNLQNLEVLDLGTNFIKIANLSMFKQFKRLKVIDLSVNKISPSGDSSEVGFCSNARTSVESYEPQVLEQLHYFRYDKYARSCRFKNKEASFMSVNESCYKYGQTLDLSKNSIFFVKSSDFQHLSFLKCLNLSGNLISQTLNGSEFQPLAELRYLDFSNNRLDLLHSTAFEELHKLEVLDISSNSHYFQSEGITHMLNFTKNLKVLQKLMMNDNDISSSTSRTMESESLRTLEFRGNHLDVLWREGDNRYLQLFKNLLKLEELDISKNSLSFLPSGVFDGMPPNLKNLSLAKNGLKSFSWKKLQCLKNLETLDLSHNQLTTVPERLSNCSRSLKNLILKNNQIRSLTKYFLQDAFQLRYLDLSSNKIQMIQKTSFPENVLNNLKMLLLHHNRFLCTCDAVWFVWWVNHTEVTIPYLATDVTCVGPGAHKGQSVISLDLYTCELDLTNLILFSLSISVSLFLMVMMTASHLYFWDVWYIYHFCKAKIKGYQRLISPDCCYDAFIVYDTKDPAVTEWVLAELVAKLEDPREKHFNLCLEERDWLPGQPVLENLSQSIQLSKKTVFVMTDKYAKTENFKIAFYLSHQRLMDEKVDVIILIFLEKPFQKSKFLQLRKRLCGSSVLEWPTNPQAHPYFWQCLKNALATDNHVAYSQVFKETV
Test: TLR7 inhibition reporter assay (HEK-Blue cells, SEAP reporter, gardiquimod stimulation)
Assay type: cell-based
Settings: HEK-Blue cells overexpressing human TLR7, gardiquimod 7.5 μM
Procedure, shortened: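 22 h, 37° C, 5% CO2 incubation; compounds 0.05 nM-50 μM final; TLR7 cells 15000/well, TLR8 20,000/well. Readout: SEAP via HEK-Blue Detection medium. % inhibition = signal reduction versus agonist + DMSO wells, referenced to known inhibitor.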

COc1ccc(-c2[nH]c3ccc(C4CCN(C(=O)C[C@@H](C)O)CC4)cc3c2CC(F)(F)F)cc1OC [Example 353, (R)-1-(4-(2-(3,4-dimethoxyphenyl)-3-(2,2,2-trifluoroethyl)-1H-indol-5-yl)piperidin-1-yl)-3-hydroxybutan-1-one]
IC50: 229 nM

COc1ccc(-c2[nH]c3ccc(C4CCN(C(=O)COc5cccnc5)CC4)cc3c2CC(F)(F)F)cc1OC [Example 349, 1-(4-(2-(3,4-dimethoxyphenyl)-3-(2,2,2-trifluoroethyl)-1H-indol-5-yl)piperidin-1-yl)-2-(pyridin-3-yloxy)ethan-1-one]
IC50: 291 nM

COc1ccc(-c2[nH]c3ccc(C4CCN(CC(=O)N5CCN(c6ccncc6)CC5)CC4)cc3c2CC(F)(F)F)cc1OC [Example 366, 2-(4-(2-(3,4-dimethoxyphenyl)-3-(2,2,2-trifluoroethyl)-1H-indol-5-yl)piperidin-1-yl)-1-(4-(pyridin-4-yl)piperazin-1-yl) ethan-1-one]
IC50: 4 nM

COc1ccc(-c2[nH]c3ccc(C4CCN(C(=O)C5CCN(C(C)=O)CC5)CC4)cc3c2CC(F)(F)F)cc1OC [Example 345, 1-(4-(4-(2-(3,4-dimethoxyphenyl)-3-(2,2,2-trifluoroethyl)-1H-indol-5-yl)piperidine-1-carbonyl)piperidin-1-yl)ethan-1-one]
IC50: 256 nM

COc1ccc(-c2[nH]c3ccc(C4CCN(C(=O)CCn5cccc5)CC4)cc3c2CC(F)(F)F)cc1OC [Example 344, 1-(4-(2-(3,4-dimethoxyphenyl)-3-(2,2,2-trifluoroethyl)-1H-indol-5-yl)piperidin-1-yl)-3-(1H-pyrrol-1-yl)propan-1-one]
IC50: 881 nM

COc1ccc(-c2[nH]c3ccc(C4CCN(C(=O)CN(C)C)CC4)cc3c2CC(F)F)cc1OC [Example 399, 1-(4-(3-(2,2-difluoroethyl)-2-(3,4-dimethoxyphenyl)-1H-indol-5-yl)piperidin-1-yl)-2-(dimethylamino)ethan-1-one]
IC50: 106 nM

COc1ccc(-c2[nH]c3ccc(C4CCNCC4F)cc3c2C(C)C)cc1OC (single isomer, unassigned) [Example 323, 2-(3,4-dimethoxyphenyl)-5-(3-fluoropiperidin-4-yl)-3-isopropyl-1H-indole]
IC50: 42 nM

COc1ccc(-c2[nH]c3ccc(C4CCN(CC(=O)N5CC[C@@H](N(C)C)C5)CC4)cc3c2CC(F)(F)F)cc1OC [Example 373, (R)-2-(4-(2-(3,4-dimethoxyphenyl)-3-(2,2,2-trifluoroethyl)-1H-indol-5-yl)piperidin-1-yl)-1-(3-(dimethylamino)pyrrolidin-1-yl)ethan-1-one]
IC50: 16 nM

COc1ccc(-c2[nH]c3ccc(C4CCN(CC(=O)NCCC5CCCN5C)CC4)cc3c2CC(F)(F)F)cc1OC (centres unmarked) [Example 360, 2-(4-(2-(3,4-dimethoxyphenyl)-3-(2,2,2-trifluoroethyl)-1H-indol-5-yl)piperidin-1-yl)-N-(2-(1-methylpyrrolidin-2-yl)ethyl) acetamide]
IC50: 16 nM

COc1ccc(-c2[nH]c3ccc(C4CCNCC4F)cc3c2C(C)C)cc1OC (racemic) [Example 319, 2-(3,4-dimethoxyphenyl)-5-(3-fluoropiperidin-4-yl)-3-isopropyl-1H-indole]
IC50: 45 nM

COc1ccc(-c2[nH]c3ccc(C4CCN(CC(=O)N5CCC(N6CCCCC6)CC5)CC4)cc3c2CC(F)(F)F)cc1OC [Example 359, 1-([1,4′-bipiperidin]-1′-yl)-2-(4-(2-(3,4-dimethoxyphenyl)-3-(2,2,2-trifluoroethyl)-1H-indol-5-yl)piperidin-1-yl)ethan-1-one]
IC50: 19 nM

CCN(CC)C(=O)C1CCCN(CC(=O)N2CCC(c3ccc4[nH]c(-c5ccc(OC)c(OC)c5)c(C5CCOCC5)c4c3)CC2)C1 (centres unmarked) [Example 391, 1-(2-(4-(2-(3,4-dimethoxyphenyl)-3-(tetrahydro-2H-pyran-4-yl)-1H-indol-5-yl)piperidin-1-yl)-2-oxoethyl)-N,N-diethylpiperidine-3-carboxamide]
IC50: 626 nM

COc1ccc(-c2[nH]c3ccc(C4CCN(C(=O)[C@@H]5CCCN5C(C)=O)CC4)cc3c2CC(F)(F)F)cc1OC [Example 336, (S)-1-(2-(4-(2-(3,4-dimethoxyphenyl)-3-(2,2,2-trifluoroethyl)-1H-indol-5-yl)piperidine-1-carbonyl)pyrrolidin-1-yl)ethan-1-one]
IC50: 359 nM

CCc1c(-c2ccc(OC)c(OC)c2)[nH]c2cc(C)c(C3CCNCC3)cc12 [Example 396, 2-(3,4-dimethoxyphenyl)-3-ethyl-6-methyl-5-(piperidin-4-yl)-1H-indole, HCl]
IC50: 47 nM

COc1ccc(-c2[nH]c3ccc(C4CCN(C(=O)CCCN(C)C)CC4)cc3c2CC(F)(F)F)cc1OC [Example 351, 1-(4-(2-(3,4-dimethoxyphenyl)-3-(2,2,2-trifluoroethyl)-1H-indol-5-yl)piperidin-1-yl)-4-(dimethylamino)butan-1-one]
IC50: 17 nM

CCC(C)NC(=O)CN1CCC(c2ccc3[nH]c(-c4ccc(OC)c(OC)c4)c(CC(F)(F)F)c3c2)CC1 (centres unmarked) [Example 377, N-(sec-butyl)-2-(4-(2-(3,4-dimethoxyphenyl)-3-(2,2,2-trifluoroethyl)-1H-indol-5-yl)piperidin-1-yl)acetamide]
IC50: 233 nM

COc1ccc(-c2[nH]c3ccc(C4CCN(CC(=O)N(C)CCCN(C)C)CC4)cc3c2CC(F)(F)F)cc1OC [Example 365, 2-(4-(2-(3,4-dimethoxyphenyl)-3-(2,2,2-trifluoroethyl)-1H-indol-5-yl)piperidin-1-yl)-N-(3-(dimethylamino)propyl)-N-methylacetamide]
IC50: 14 nM

COc1ccc(-c2[nH]c3ccc(C4CCN(C(=O)NCCc5ccccc5)CC4)cc3c2CC(F)(F)F)cc1OC [Example 357, 4-(2-(3,4-dimethoxyphenyl)-3-(2,2,2-trifluoroethyl)-1H-indol-5-yl)-N-phenethylpiperidine-1-carboxamide]
IC50: 690 nM

CCN(CC)C(=O)C1CCCN(CC(=O)N2CCC(c3ccc4[nH]c(-c5ccc(OC)c(OC)c5)c(C5CCOCC5)c4c3)CC2)C1 (centres unmarked) [Example 392, 1-(2-(4-(2-(3,4-dimethoxyphenyl)-3-(tetrahydro-2H-pyran-4-yl)-1H-indol-5-yl)piperidin-1-yl)-2-oxoethyl)-N,N-diethylpiperidine-3-carboxamide]
IC50: 681 nM

COc1ccc(-c2[nH]c3ccc(C4CCN(CC(=O)NCC(N)=O)CC4)cc3c2CC(F)(F)F)cc1OC [Example 385, N-(2-amino-2-oxoethyl)-2-(4-(2-(3,4-dimethoxyphenyl)-3-(2,2,2-trifluoroethyl)-1H-indol-5-yl)piperidin-1-yl)acetamide]
IC50: 61 nM

COc1ccc(-c2[nH]c3ccc(C4CCN(C(=O)CS(C)(=O)=O)CC4)cc3c2CC(F)(F)F)cc1OC [Example 347, 1-(4-(2-(3,4-dimethoxyphenyl)-3-(2,2,2-trifluoroethyl)-1H-indol-5-yl)piperidin-1-yl)-2-(methylsulfonyl)ethan-1-one]
IC50: 155 nM

COc1ccc(-c2[nH]c3ccc(C4CCN(C(=O)CN(C)C)CC4)cc3c2CC(F)(F)F)cc1OC [Example 354, 1-(4-(2-(3,4-dimethoxyphenyl)-3-(2,2,2-trifluoroethyl)-1H-indol-5-yl)piperidin-1-yl)-2-(dimethylamino)ethan-1-one]
IC50: 22 nM

COc1ccc(-c2[nH]c3ccc(C4CCNCC4)cc3c2CC(F)(F)F)cc1OC [Example 329, 2-(3,4-dimethoxyphenyl)-5-(piperidin-4-yl)-3-(2,2,2-trifluoroethyl)-1H-indole]
IC50: 15 nM
